# Reference: ChEMBL document CHEMBL3507680, “University of Dundee, Gates Library screen for HepG2 cell viability”
# Test: Human HepG2 cell viability assay in 384 well format
# Format: toxicity, cell-based
# Design: dose 125 nL, time 70.5 hour; cytotoxicity at 70.5 h: concentration not given beside the values
# Settings: HepG2 cells, read-out: Inhibition
row,SMILES,cytotoxicity at 70.5 h
1,O=C(Cc1ccc(F)cc1)N1CCCCC1c1ccn2ccnc2n1 (stereo not drawn),-12%
2,CC1CN(C(=O)Nc2cccc(CN3CCOC3=O)c2)CCO1 (stereo not drawn),-9.66%
3,O=c1[nH]c2nc(N3CCSCC3)ncc2c(=O)n1-c1cccc(F)c1,-0.348%
4,Cc1ccoc1C(=O)N1C[C@H](OCC2CC2)[C@H]2OCCC[C@H]21,-0.347%
5,CN1CCOC(C(=O)Nc2nnc(Cc3ccc(F)cc3)[nH]2)C1 (stereo not drawn),-7.94%
6,CCc1ccc(C(C)NCc2nccn2Cc2ccccc2)o1 (stereo not drawn),-9.96%
7,Cc1ccsc1C(=O)N1CCC2(CC1)C(=O)N(C)CCN2CC1CC1,-12.8%
8,COCCNC(=O)c1nc2c(s1)CCCN2Cc1ccccc1,-6.6%
9,COCCn1/c(=N/C(=O)C(C)C)sc2cc(Cl)ccc21,21.1%
10,COc1ccc(CC(=O)N2CCCC(c3nncn3C)C2)cc1 (stereo not drawn),-2.88%
11,CCn1cnnc1CNC(=O)NC(c1ccccc1)C1CCCC1 (stereo not drawn),-7.51%
12,CCN1C[C@@H]2CN(S(=O)(=O)c3cccs3)C[C@@H]2C1=O,-8.27%
13,CS(=O)(=O)c1cc(S(N)(=O)=O)ccc1NCC1CCCO1 (stereo not drawn),-3.22%
14,Cc1ccsc1CNC(=O)CC1CN(C(=O)OC(C)(C)C)C1,-9.31%
15,CC(C)[C@H]1CN(CC2CCC2)C[C@@H]1NC(=O)c1ccc(=O)[nH]c1,3.69%
16,CCNC(=O)[C@@H]1C[C@H](N)CN1Cc1ccc(-c2cc[nH]n2)o1,9.98%
17,COCC(O)CNc1ccc(C#N)cc1C(F)(F)F (stereo not drawn),-9.81%
18,CCN1CCC(CC(=O)NCCc2nc(C)cc(C)n2)CC1,-3.38%
19,COCCN1C[C@@H]2[C@@H](OC)CCN(Cc3ccc(C)o3)[C@@H]2C1,-1.05%
20,CN1CC(C(=O)NCCc2ccc3c(c2)OCO3)CC1=O (stereo not drawn),-8.14%
21,Cc1cc(C)n(CNc2nonc2C(N)=O)n1,36%
22,CN1CC(c2ccccc2)C2(CCN(C(=O)c3cccn3C)CC2)C1=O (stereo not drawn),1.54%
23,COC(=O)C(O)C1CCN(Cc2cccc(-n3cccn3)c2)CC1 (stereo not drawn),-1.06%

row,SMILES,cytotoxicity at 70.5 h
1,Cc1nn(Cc2ccc(C(=O)NCCCN3CCCC3=O)o2)c(C)c1Br,-7.69%
2,Cc1nc(-c2ccccc2)n(CC(=O)NC(C)C)n1,-1.29%
3,Cc1cccc(N2CC3(COCCN(c4ccncn4)C3)OCC2=O)c1 (stereo not drawn),0.341%
4,CC(C)CN1CCCn2nc(CNC(=O)NC(C)(C)C)cc2C1,-6.75%
5,N#CCSCCCN1CCN(C(=O)C2CCCC2)CC1,-5.88%
6,O=C(CC1=CCCCC1)NCCc1csc(N2CCCC2)n1,-0.0397%
7,Cc1nc(C)n(CC2CCCN2CCOc2ccc(C#N)cc2)n1 (stereo not drawn),6.36%
8,CCOC(=O)CNC(=O)c1scnc1C,-8.4%
9,Cc1ccc(CN2C[C@@H](C(=O)O)[C@H](c3cccnc3)C2)s1,1.41%
10,CC(=O)N1CCN(C(=O)CNc2cccc(OC(F)F)c2C)CC1,-1.78%
11,COCCN1C[C@@H](C)[C@@]2(COCCN(C(=O)Cc3ccccc3)C2)C1,-23%
12,O=C(c1ccc(O)cc1)N1C[C@@H]2OCCN(c3ncccn3)[C@@H]2C1,-10.7%
13,CC(C)c1ccc(-n2cc(O)c(C(=O)O)n2)cc1,-5.79%
14,Cc1cc(C(=O)NCC(c2ccsc2)N(C)C)no1 (stereo not drawn),-5.66%
15,Cc1nn(C)cc1-c1cc(C(=O)NCC(C)(C)c2ccc(F)cc2)n[nH]1,4.21%
16,Cc1ccc(F)c(S(=O)(=O)NCc2[nH]ncc2Br)c1,-10%
17,Cc1cc(NC(=O)c2ccc(-n3ncc(C#N)c3N)cc2)n(C)n1,-8.66%
18,CS(=O)(=O)c1ccc(CNCC2CCN(CCO)CC2)cc1,18.2%
19,O=C(O)c1coc(COc2cccc(F)c2)n1,-4.11%
20,CCc1nnc(CN(C)c2nccc(N3CCCC(O)C3)n2)o1 (stereo not drawn),27.2%
21,CCC(=O)N1CCc2nc(N3CCOCC3)nc(N(C)C)c2CC1,35.1%
22,CC(=O)N1CCCC2(C1)CN(C(=O)Cc1ccccc1)CCO2 (stereo not drawn),-15.1%
23,CN1CCN(Cc2cccnc2)C2(CCN(c3ncc(F)cn3)C2)C1=O (stereo not drawn),-6.18%

row,SMILES,cytotoxicity at 70.5 h
1,COCCNC(=O)c1c(-n2cnnn2)sc2c1CCCC2,-4.74%
2,O=C(NC1CC1)c1cnc(-c2noc3cc(N4CCCCC4)ccc23)s1,-0.737%
3,CC(O)CN1CCC(CN(C)Cc2ccc(C#N)cc2)CC1 (stereo not drawn),-11%
4,COCc1ccccc1C(=O)NCC(O)c1ccc(Cl)s1 (stereo not drawn),0.31%
5,Cc1cc(CN2CC[C@H]3[C@H]2CCN3CC(=O)N(C)C)oc1C,-5%
6,c1cnc(N2CCc3onc(CN4CCCC4)c3C2)cn1,6.11%
7,Cc1cc(C)n(CC2CCCN2C(=O)c2ccc3c(c2)COC3)n1 (stereo not drawn),-13.3%
8,COCC1COCCC12CCN(S(=O)(=O)c1ccccc1C)CC2 (stereo not drawn),7.67%
9,CCCN1CCN(c2ccc(-c3nc(C)no3)cn2)CC1,13%
10,Cc1cccc(CN2C[C@@H]3CN(C(=O)C4CCOC4)C[C@@H]3C2=O)c1 (stereo partly drawn),2.05%
11,Cc1nn(C)c2nc(NC3CCNCC3)sc12,1.8%
12,O=C(CNC(=O)c1cnccn1)Nc1ncc[nH]1,-33.4%
13,Cc1ccc(OCC(=O)N2CCOCC(O)(CN3CCCC3)C2)cc1C (stereo not drawn),27.8%
14,O=C1OCCN1CCSc1nnnn1CC(F)(F)F,-5.39%
15,COc1ccc(-c2noc(CNC(C)Cn3cccn3)n2)c(OC)c1 (stereo not drawn),22.3%
16,NC(=O)c1ccc(CNC(=O)NCc2cc[nH]n2)cc1,-12.2%
17,O=C(CCCc1ccccc1)N1CCC(Nc2cccnn2)CC1,-4.29%
18,CN1CCCN(c2cnn(Cc3ccc(C(C)(C)C)cc3)c(=O)c2)CC1,-8.93%
19,CCN(Cc1ccc2cccc(O)c2n1)CC1CCCO1 (stereo not drawn),12.5%
20,N[C@H]1CC[C@@H](NC(=O)c2ccc3nc(-c4ccc(F)cc4)cn3c2)CC1,-14.6%
21,CN(C)C(=O)C1CCCN1CCCNC(=O)c1cccc2[nH]ncc12 (stereo not drawn),12.2%
22,O=C(Nc1ccc(CN2CCOCC2)cc1)c1nccn2ccnc12,22.2%
23,CN(C(=O)c1ccncc1)c1ccccc1S(C)(=O)=O,-2.3%

row,SMILES,cytotoxicity at 70.5 h
1,Cc1occc1C(=O)N1C[C@@H]2[C@@H](C1)OCC(=O)N2Cc1cccnc1,-2.83%
2,COc1cc2c(cc1CN1CCc3sccc3C1C)OCO2 (stereo not drawn),2.98%
3,O=C(NCC1CC1)[C@H]1C[C@@H]2CCN(Cc3ccc4c(c3)OCO4)C[C@@H]2O1,-11.6%
4,O=C(COCC1CC1)N1CCCC(n2cncn2)C1 (stereo not drawn),-9.93%
5,CC(C)C1CN(c2ncc(F)cn2)CCC(=O)N1Cc1ccc(F)cc1 (stereo not drawn),-6.84%
6,CSCC(C)(O)CNc1cccc(F)c1C(C)=O (stereo not drawn),-5.74%
7,Cc1c(C2SCC(=O)Nc3c2cnn3C(C)(C)C)cnn1C (stereo not drawn),-10.1%
8,Cc1ccc(NC(=O)N2CCC3(CCC(C(=O)N(C)C)O3)CC2)cc1 (stereo not drawn),-4.12%
9,O=C(NCCO)NC(c1ccccc1)c1ccc2c(c1)CCCO2 (stereo not drawn),-12.9%
10,CCCN(C)C(=O)c1cc(S(=O)(=O)NCC)ccc1C,-1.03%
11,CC(=O)N1CCC(Nc2cc(F)ccc2OCC2CCCO2)CC1 (stereo not drawn),11.4%
12,CN(C)C(=O)CO[C@@H]1CC[C@H]2[C@H]1OCCN2C(=O)C1CCOCC1,-3.79%
13,O=C(Cc1noc2ccccc12)N1CCC(Nc2cccnn2)CC1,-5.81%
14,Cc1ncsc1CN1C[C@H]2OCC[C@H]2[C@H](C(=O)NCC2CC2)C1,2.15%
15,COc1ccc(C[C@H]2CN(C(=O)c3ccc(C)nc3)CC[C@@H]2OC)cc1,-2.92%
16,Cc1ccc(C(=O)N2CCn3c(COCC4CC4)cnc3C2C)nc1 (stereo not drawn),-8.57%
17,Cc1ccc([C@@H]2CN(C(=O)CCc3cc(Cl)no3)C[C@H]2N(C)C)cc1,11.1%
18,CCOc1ncccc1NC(=O)N1CCC(CN2CCOCC2)CC1,-3.11%
19,CC(C)(C)C(O)CN1CCN(Cc2ccc(C#N)cc2)CC1 (stereo not drawn),-6.98%
20,CCCN1CCN(C(=O)c2scnc2C)CC1,-3.56%
21,COc1ccccc1C(NC(=O)CN(C)C(C)C)c1noc(C)n1 (stereo not drawn),-2.25%
22,CS(=O)(=O)CCCN1CCOC2(CCc3ccccc32)C1 (stereo not drawn),0.769%
23,COc1ccc2c(c1)OCC(Cc1cncc(N)c1)C2 (stereo not drawn),8.44%

row,SMILES,cytotoxicity at 70.5 h
1,COc1nn(C)cc1C(=O)NCC(=O)NCc1cccnc1,-2.92%
2,Cc1ccc(S(=O)(=O)NC(=O)CCc2ccccc2)cc1N(C)C,-5.27%
3,COc1cccc(CCC(=O)N2CCCCC2Cn2cccn2)c1 (stereo not drawn),-11.2%
4,CC(C)c1sc(Cl)nc1C(=O)N1CCN(Cc2ccccc2)CC1,27.3%
5,CN1CCC(N(C)CCC(=O)N2CCC(Oc3ccc(Cl)cc3)CC2)C1 (stereo not drawn),-5.97%
6,CCOc1ccc(NC2CCN(C)C2=O)cn1 (stereo not drawn),-3.61%
7,NC(=O)N1CCCN(Cc2cc(F)cc(Br)c2)CC1,-8.26%
8,O=c1c2cccc(F)c2ncn1CCN1CCNCC1,-2.04%
9,Cc1cccc(-c2nc(CN3CCn4c(nnc4C4CC4)C3)no2)c1,-12.1%
10,COCCn1ccc2c(C(=O)NC(C)C)cccc21,-12.3%
11,Cc1nc(CN2CCC23CCN(Cc2ccoc2)CC3)cs1,-6.82%
12,Cc1ccccc1C(=O)N1C[C@@H]2C[C@@H](C)O[C@@H]2C1,-8.1%
13,CCOC(=O)CC1CCCCN1C(=O)c1cnc(C)cn1 (stereo not drawn),-4.78%
14,Cc1nc(NCCc2ccccc2)cc(C(=O)N2CCOCC2)n1,5.2%
15,CCCN(CC)c1cc(C2CCNCC2)nc(C)n1,26.5%
16,CN(C(=O)CC1=CCCCC1)C1CCCN(C2Cc3ccccc3C2)C1 (stereo not drawn),-0.808%
17,O=C(NCCOc1ccccc1)c1ccc2c(c1)C(=O)NC2=O,3.38%
18,COc1ccnc(NC2CCN(CC(=O)N3CCCC3)CC2)n1,-4.69%
19,Cc1cccc(CN2CCC3(CC2)CN(c2cnn(C)c2)C(=O)CO3)n1,41.4%
20,CC(C)(O)CCc1cccc(C(=O)N2CCC3(CCOCC3)CC2)c1,-2.42%
21,CCC(O)CN1CCN(C(=O)c2cccc3c2OCC(=O)N3)CC1 (stereo not drawn),27.7%
